Experimental data from patent US8329645B2, “Polymyxin derivatives and uses thereof” (priority 2008, dated 2012).
Converted amounts (≈) assume the structure as drawn. Where a SMILES comes first, the peptide text is derived from it. Bridges are numbered along the chain shown (N, C = ends). [ ]: non-standard residue; d: D form. The star is where a group is joined. Octanoyl = CCCCCCCC(=O)*; Dab = NCC[C@H](N)C(=O)O; Abu = CC[C@H](N)C(=O)O

Columns and labels:
E. coli CCUG 41432 = details: CCUG 41432
Procedure: (§1) Polymyxin B sulfate (Sigma-Aldrich, St. Louis, Mo., USA) was used as a control. […] The bacterial test strains originated from ATCC (10 strains), CCUG (11 strains), and NCTC (3 strains). Fourteen (14) strains (the F-strains) were purchased from Mobidiag Ltd., Helsinki, Finland.
(§2) The inocula were prepared by adjusting the bacterial suspensions to a density equivalent to OD546 nm˜0.3 (˜10^8 CFU/ml˜0.5 McFarland) the yeast suspension to a density equivalent to OD546 nm˜0.75 (˜2×10^7 CFU/ml)._The suspensions were diluted to 10^7 CFU/ml. The plates were inoculated by using a Denley Multipoint Inoculator, 1 μl per spot corresponding to approx. 10^4 CFU/spot. Plates were incubated for 16-20 hours at 35° C.

E. coli NCTC 13352 = details: NCTC 13352
Procedure: as §1, §2

K. pneumoniae F145 = details: F145
Procedure: as §1, §2

E. coli CCUG 41429 = details: CCUG 41429
Procedure: as §1, §2

A. baumannii F263 = details: F263
Procedure: as §1, §2

P. aeruginosa F58 = details: F58
Procedure: as §1, §2

E. cloacae F232 = details: F232
Procedure: as §1, §2

S. aureus ATCC 25923 = details: ATCC 25923
Procedure: as §1, §2

A. baumannii F264 = details: F264
Procedure: as §1, §2

E. coli F8 = details: F8
Procedure: as §1, §2

E. coli CCUG 41425 = details: CCUG 41425
Procedure: as §1, §2

K. pneumoniae F136 = details: F136
Procedure: as §1, §2

K. pneumoniae F144 = details: F144
Procedure: as §1, §2

K. oxytoca ATCC 13182 = details: ATCC 13182
Procedure: as §1, §2

E. coli NCTC 13353 = details: NCTC 13353
Procedure: as §1, §2

E. coli ATCC 25922 = details: ATCC 25922
Procedure: as §1, §2

E. coli F19 = details: F19
Procedure: as §1, §2

E. coli IH3080 = details: IH3080
Procedure: as §1, §2

[1] = test system: S. maltophilia ATCC 17444; details: ATCC 17444
Procedure: as §1, §2

A. baumannii ATCC 19606 = details: ATCC 19606
Procedure: as §1, §2

K. oxytoca CCUG 51683 = details: CCUG 51683
Procedure: as §1, §2

E. coli CCUG 41424 = details: CCUG 41424
Procedure: as §1, §2

E. cloacae F231 = details: F231
Procedure: as §1, §2

E. cloacae ATCC 23355 = details: ATCC 23355
Procedure: as §1, §2

P. aeruginosa ATCC 27853 = details: ATCC 27853
Procedure: as §1, §2

P. aeruginosa CCUG 51971 = test system: P. aeruginosa CCUG 51971
Procedure: as §1, §2

E. coli CCUG 41422 = test system: E. coli CCUG 41422
Procedure: as §1, §2

E. coli NCTC 13351 = details: NCTC 13351
Procedure: as §1, §2

C. freundii ATCC 8090 = details: ATCC 8090
Procedure: as §1, §2

S. marcescens ATCC 8100 = details: ATCC 8100
Procedure: as §1, §2

K. pneumoniae ATCC 13883 = details: ATCC 13883
Procedure: as §1, §2

E. cloacae CCUG 52947 = details: CCUG 52947
Procedure: as §1, §2

E. coli CCUG 41427 = details: CCUG 41427
Procedure: as §1, §2

K. pneumoniae CCUG 45421 = details: CCUG 45421
Procedure: as §1, §2

[2] = test system: Ps. aeruginosa ATCC 27853; test: Sensitization to rifampin: growth inhibition around wells on LB plates containing rifampin; format: cell-based, Pseudomonas aeruginosa; details: 4 μg

Q: Which MIC (E. coli CCUG 41432) does the source give for `CCCCCCCC(=O)N[C@H](C(=O)N[C@@H](CC)C(=O)N[C@H]1CCNC(=O)[C@H]([C@@H](C)O)NC(=O)[C@H](CCN)NC(=O)[C@H](CCN)NC(=O)[C@H](CC(C)C)NC(=O)[C@@H](Cc2ccccc2)NC(=O)[C@H](CCN)NC1=O)[C@@H](C)O` [NAB 7061, OA-Thr-Abu-cy[Dab-Dab-DPhe-Leu-Dab-Dab-Thr-]] (Octanoyl-T[Abu][Dab][Dab][dF]L[Dab][Dab]T; lactam 3-C) here?
A: Its MIC is greater than 32 µg/mL.

Q: What about the MIC (E. coli NCTC 13352) of the same molecule?
A: The MIC was 32 µg/mL (≈ 29.8 µM).

Q: And the MIC (K. pneumoniae F145)?
A: The MIC was greater than 32 µg/mL.

Q: And the MIC (E. coli CCUG 41429)?
A: The MIC was 16 µg/mL (≈ 14.9 µM).

Q: What about the MIC (A. baumannii F263) of the same molecule?
A: Its MIC is greater than 32 µg/mL.

Q: And the MIC (P. aeruginosa F58)?
A: The MIC was greater than 32 µg/mL.

Q: And the MIC (E. cloacae F232)?
A: The MIC was greater than 32 µg/mL.

Q: What about the MIC (S. aureus ATCC 25923) of the same molecule?
A: Its MIC is greater than 32 µg/mL.

Q: What about the MIC (A. baumannii F264) of the same molecule?
A: Its MIC is greater than 32 µg/mL.

Q: And the MIC (E. coli F8)?
A: Its MIC is greater than 32 µg/mL.

Q: What about the MIC (E. coli CCUG 41425) of the same molecule?
A: Its MIC is greater than 32 µg/mL.

Q: What about the MIC (K. pneumoniae F136) of the same molecule?
A: Its MIC is greater than 32 µg/mL.

Q: And the MIC (K. pneumoniae F144)?
A: The MIC was greater than 32 µg/mL.

Q: What about the MIC (K. oxytoca ATCC 13182) of the same molecule?
A: The MIC was 32 µg/mL (≈ 29.8 µM).

Q: What about the MIC (E. coli NCTC 13353) of the same molecule?
A: The MIC was greater than 32 µg/mL.

Q: What about the MIC (E. coli ATCC 25922) of the same molecule?
A: Its MIC is greater than 32 µg/mL.

Q: What about the MIC (E. coli F19) of the same molecule?
A: The MIC was 32 µg/mL (≈ 29.8 µM).

Q: And the MIC (E. coli IH3080)?
A: The MIC was greater than 32 µg/mL.

Q: What about the MIC [1] of the same molecule?
A: The MIC was greater than 32 µg/mL.

Q: What about the MIC (A. baumannii ATCC 19606) of the same molecule?
A: Its MIC is greater than 32 µg/mL.

Q: What about the MIC (K. oxytoca CCUG 51683) of the same molecule?
A: Its MIC is 32 µg/mL (≈ 29.8 µM).

Q: And the MIC (E. coli CCUG 41424)?
A: Its MIC is 32 µg/mL (≈ 29.8 µM).

Q: And the MIC (E. cloacae F231)?
A: The MIC was 32 µg/mL (≈ 29.8 µM).

Q: What about the MIC (E. cloacae ATCC 23355) of the same molecule?
A: Its MIC is 32 µg/mL (≈ 29.8 µM).

Q: And the MIC (P. aeruginosa ATCC 27853)?
A: The MIC was greater than 32 µg/mL.

Q: What about the MIC (P. aeruginosa CCUG 51971) of the same molecule?
A: The MIC was greater than 32 µg/mL.

Q: What about the MIC (E. coli CCUG 41422) of the same molecule?
A: Its MIC is greater than 32 µg/mL.

Q: And the MIC (E. coli NCTC 13351)?
A: The MIC was greater than 32 µg/mL.

Q: What about the MIC (C. freundii ATCC 8090) of the same molecule?
A: The MIC was 16 µg/mL (≈ 14.9 µM).

Q: What about the MIC (S. marcescens ATCC 8100) of the same molecule?
A: The MIC was greater than 32 µg/mL.

Q: And the MIC (K. pneumoniae ATCC 13883)?
A: The MIC was greater than 32 µg/mL.

Q: And the MIC (E. cloacae CCUG 52947)?
A: The MIC was greater than 32 µg/mL.

Q: And the MIC (E. coli CCUG 41427)?
A: The MIC was greater than 32 µg/mL.

Q: And the MIC (K. pneumoniae CCUG 45421)?
A: The MIC was greater than 32 µg/mL.

Q: And the “growth inhibition around a well in the presence of rifampin” value (“growth inhibition around a well” below) ([2]; rifampin 0 μg/ml)?
A: Its value is 0 square millimeters.

Q: What about the “growth inhibition around a well” value ([2]; rifampin 0.1 μg/ml) of the same molecule?
A: The value was 0 square millimeters.

Q: And the “growth inhibition around a well” value ([2]; rifampin 0.3 μg/ml)?
A: The value was 0 square millimeters.

Q: With `CCCCCCCC(=O)N[C@H](C(=O)N[C@H](CO)C(=O)N[C@H]1CCNC(=O)[C@H]([C@@H](C)O)NC(=O)[C@H](CCN)NC(=O)[C@H](CCN)NC(=O)[C@H](CC(C)C)NC(=O)[C@@H](Cc2ccccc2)NC(=O)[C@H](CCN)NC1=O)[C@@H](C)O` [NAB 739, OA-Thr-DSer-cy[Dab-Dab-DPhe-Leu-Dab-Dab-Thr-]] (Octanoyl-T[dS][Dab][Dab][dF]L[Dab][Dab]T; lactam 3-C) as the molecule, how does the MIC (E. coli CCUG 41432) read?
A: Its MIC is 1 µg/mL (≈ 0.929 µM).

Q: And the MIC (E. coli NCTC 13352)?
A: The MIC was 1 µg/mL (≈ 0.929 µM).

Q: And the MIC (K. pneumoniae F145)?
A: The MIC was 2 µg/mL (≈ 1.86 µM).

Q: What about the MIC (E. coli CCUG 41429) of the same molecule?
A: The MIC was 1 µg/mL (≈ 0.929 µM).

Q: And the MIC (A. baumannii F263)?
A: The MIC was 4 µg/mL (≈ 3.72 µM).

Q: What about the MIC (P. aeruginosa F58) of the same molecule?
A: Its MIC is 8 µg/mL (≈ 7.43 µM).

Q: And the MIC (E. cloacae F232)?
A: The MIC was 2 µg/mL (≈ 1.86 µM).

Q: And the MIC (S. aureus ATCC 25923)?
A: The MIC was greater than 32 µg/mL.

Q: And the MIC (A. baumannii F264)?
A: Its MIC is 4 µg/mL (≈ 3.72 µM).

Q: What about the MIC (E. coli F8) of the same molecule?
A: Its MIC is 1 µg/mL (≈ 0.929 µM).

Q: What about the MIC (E. coli CCUG 41425) of the same molecule?
A: The MIC was 1 µg/mL (≈ 0.929 µM).

Q: And the MIC (K. pneumoniae F136)?
A: Its MIC is 1 µg/mL (≈ 0.929 µM).

Q: And the MIC (K. oxytoca ATCC 13182)?
A: Its MIC is 2 µg/mL (≈ 1.86 µM).

Q: And the MIC (E. coli NCTC 13353)?
A: Its MIC is 1 µg/mL (≈ 0.929 µM).

Q: And the MIC (E. coli ATCC 25922)?
A: The MIC was 1 µg/mL (≈ 0.929 µM).

Q: What about the MIC (E. coli F19) of the same molecule?
A: The MIC was 0.5 µg/mL (≈ 0.465 µM).

Q: And the MIC (E. coli IH3080)?
A: Its MIC is 1 µg/mL (≈ 0.929 µM).

Q: What about the MIC [1] of the same molecule?
A: Its MIC is 16 µg/mL (≈ 14.9 µM).

Q: What about the MIC (A. baumannii ATCC 19606) of the same molecule?
A: The MIC was 8 µg/mL (≈ 7.43 µM).

Q: And the MIC (K. oxytoca CCUG 51683)?
A: The MIC was 2 µg/mL (≈ 1.86 µM).

Q: And the MIC (E. coli CCUG 41424)?
A: The MIC was 1 µg/mL (≈ 0.929 µM).

Q: What about the MIC (E. cloacae F231) of the same molecule?
A: The MIC was 2 µg/mL (≈ 1.86 µM).

Q: What about the MIC (E. cloacae ATCC 23355) of the same molecule?
A: Its MIC is 2 µg/mL (≈ 1.86 µM).

Q: And the MIC (P. aeruginosa ATCC 27853)?
A: Its MIC is 8 µg/mL (≈ 7.43 µM).

Q: And the MIC (P. aeruginosa CCUG 51971)?
A: Its MIC is 8 µg/mL (≈ 7.43 µM).

Q: And the MIC (E. coli CCUG 41422)?
A: Its MIC is 1 µg/mL (≈ 0.929 µM).

Q: And the MIC (C. freundii ATCC 8090)?
A: The MIC was 2 µg/mL (≈ 1.86 µM).

Q: And the MIC (S. marcescens ATCC 8100)?
A: The MIC was greater than 32 µg/mL.

Q: And the MIC (E. cloacae CCUG 52947)?
A: Its MIC is 2 µg/mL (≈ 1.86 µM).

Q: What about the MIC (E. coli CCUG 41427) of the same molecule?
A: The MIC was 1 µg/mL (≈ 0.929 µM).

Q: And the “growth inhibition around a well” value ([2]; rifampin 0 μg/ml)?
A: The value was 38 square millimeters.

Q: What about the “growth inhibition around a well” value ([2]; rifampin 0.3 μg/ml) of the same molecule?
A: Its value is 64 square millimeters.
